Measured values from patent US20250360167A1 (Keryx Biopharmaceuticals, Inc., priority 2013, published 2025).

Assays:
ferritin = test: Phase 3 trial (Example 1): ferritin; format: in vivo, human; design: Ferritin, Mean / Ferritin, Median / Ferritin, Change from Baseline, Mean / Ferritin, Change from Baseline, Median / Ferritin, LS Mean: unit not given here; conditions: for Ferritin, Mean / Ferritin, Median / Ferritin, LS Mean / Ferritin, Change from Baseline, Mean / Ferritin, Change from Baseline, Median / Ferritin, Treatment Differences, LS Mean (KRX-0502) − LS Mean (control), (SE): Table 15
Source text: Iron studies including serum iron, ferritin, TSAT, and total iron-binding capacity were done at Screening (Visit 0); at the Randomization Visit (Visit 4); at Visits 7 (Week 4), 9 (Week 8), 11 (Week 12), 12 (Week 16), 13 (Week 20), 14 (Week 24), 15 (Week 28), 16 (Week 32), 17 (Week 36), 18 (Week 40), 19 (Week 44), 20 (Week 48), and 21 (Week 52) of the 52-week Safety Assessment Period; and at Visit 25 (Week 56) of the Efficacy Assessment Period.
Change from baseline in ferritin at Week 52 as compared to baseline (Visit 4). This variable will be analyzed using LOCF methodology. ANCOVA will be employed. The model will include treatment (fixed effect), and baseline (covariate). A sensitivity analysis will be performed using MMRM method.
• 1. Change in serum calcium concentration at Weeks 12, 24, 36, 48, and 52 as compared to baseline (Visit 4). This variable will be analyzed using LOCF methodology. ANCOVA will be employed. The model will include treatment (fixed effect), and baseline (covariate). • 2. Change in ferritin, and TSAT at Weeks 12, 24, 36 and 48 as compared to baseline (Visit 4). This variable will be analyzed using LOCF methodology. ANCOVA will be employed. The model will include treatment (fixed effect), and baseline (covariate). • 3. Change in serum iron and TIBC at Weeks 12, 24, 36, 48, and 52 as compared to baseline (Visit 4). This variable will be analyzed using LOCF methodology. ANCOVA will be employed. The model will include treatment (fixed effect), and baseline (covariate). • 4. Change in Ca x P product at Weeks 12, 24, 36, 48, and 52 as compared to baseline (Visit 4). This variable will be analyzed using LOCF methodology. ANCOVA will be employed. The model will include treatment (fixed effect), and baseline (covariate). • 5. Change in iPTH at Weeks 12, 36, 52, and 56 as compared to baseline (Visit 4). This variable will be analyzed using LOCF methodology. ANCOVA will be employed. The model will include treatment (fixed effect), and baseline (covariate). • 6. Change in serum […], vitamin A, vitamin B-12, vitamin E, vitamin K and folic acid at Weeks 12, 36, and 52 as compared to baseline (Visit 4). This variable will be analyzed using LOCF methodology. ANCOVA will be employed. The model will include treatment (fixed effect), and baseline (covariate). • 7. Change in serum bicarbonate concentration at Weeks 12, 36, and 52 as compared to baseline (Visit 4). This variable will be analyzed using LOCF methodology. ANCOVA will be employed. The model will include treatment (fixed effect), and baseline (covariate). • 8. Change in IV iron intake at Weeks 12, 24, 36, 48, and 52 as compared to baseline (Visit 4). This variable will be analyzed using LOCF methodology. ANCOVA will be employed. The model will include treatment (fixed effect), and baseline (covariate). • 9. Change in the use of EPO (ESA) administered at Weeks 12, 24, 36, 48, and 52 as compared to baseline (Visit 4). This variable will be analyzed using LOCF methodology. ANCOVA will be employed. The model will include treatment (fixed effect), and baseline (covariate). • 10. Change in the use of Vitamin D supplementation (and its analogs) and Sensipar (cinacalcet) at Weeks 12, 24, 36, 48, and 52 as compared to baseline (Visit 4). This variable will be analyzed using LOCF methodology. ANCOVA will be employed. The model will include treatment (fixed effect), and baseline (covariate). • 11. Change in LDL, HDL, and triglycerides at Weeks 12, 36, and 52 as compared to baseline (Visit 4). This variable will be analyzed using LOCF methodology. ANCOVA will be employed. The model will include treatment (fixed effect), and baseline (covariate).

[1] = Phase 3 trial (Example 1): cumulative EPO (ESA) administered to Week 52; format: in vivo, human
Source text: The cumulative EPO (ESA) administrated from randomization to Week 52 will be compared between treatment groups. This variable will be similarly analyzed as the primary efficacy variable using ANCOVA method. The two-sided 95% confidence intervals of treatment differences for all above comparisons will be presented.

[2] = Day 0 Baseline, Safety Assessment Period

iron (+3), x (1, 2, 3-propanetricarboxylic acid, 2-hydroxy-), y (H2O) [KRX-0502]
Mean Ferritin, LS Mean Difference from Active Control Group at Week 52 (ferritin; ANCOVA, Table C): 286 ng/mL
Mean Ferritin (ferritin; Baseline (Day 0), Table C): 595 ng/mL
Ferritin, Mean (ferritin; [2]): 595.00
Ferritin, Median (ferritin; [2]): 587.00
Mean Ferritin, Change from Baseline at Week 52 (ferritin; Table C): 302 ng/mL
Ferritin, LS Mean (ferritin; Week 12, ANCOVA): 757.75
Mean Ferritin (ferritin; Week 12, LOCF, Table C): 751 ng/mL
Ferritin, Change from Baseline, Mean (ferritin; Week 12): 158.88
Ferritin, Change from Baseline, Median (ferritin; Week 12): 123.00
Ferritin, Mean (ferritin; Week 12): 751.19
Ferritin, Median (ferritin; Week 12): 718.00
Ferritin, Treatment Differences, LS Mean (KRX-0502) − LS Mean (control), (SE) (ferritin; Week 12): 112.95 (29.36)
Ferritin, LS Mean (ferritin; Week 24, ANCOVA): 852.52
Mean Ferritin (ferritin; Week 24, LOCF, Table C): 847 ng/mL
Ferritin, Change from Baseline, Mean (ferritin; Week 24): 252.49
Ferritin, Change from Baseline, Median (ferritin; Week 24): 220.00
Ferritin, Mean (ferritin; Week 24): 846.90
Ferritin, Median (ferritin; Week 24): 830.00
Ferritin, Treatment Differences, LS Mean (KRX-0502) − LS Mean (control), (SE) (ferritin; Week 24): 204.43 (32.84)
Ferritin, LS Mean (ferritin; Week 36, ANCOVA): 868.11
Mean Ferritin (ferritin; Week 36, LOCF, Table C): 863 ng/mL
Ferritin, Change from Baseline, Mean (ferritin; Week 36): 268.77
Ferritin, Change from Baseline, Median (ferritin; Week 36): 223.00
Ferritin, Mean (ferritin; Week 36): 863.18
Ferritin, Median (ferritin; Week 36): 818.00
Ferritin, Treatment Differences, LS Mean (KRX-0502) − LS Mean (control), (SE) (ferritin; Week 36): 241.24 (38.27)
Ferritin, LS Mean (ferritin; Week 48, ANCOVA): 887.41
Mean Ferritin (ferritin; Week 48, LOCF, Table C): 882 ng/mL
Ferritin, Change from Baseline, Mean (ferritin; Week 48): 287.69
Ferritin, Change from Baseline, Median (ferritin; Week 48): 233.00
Ferritin, Mean (ferritin; Week 48): 882.10
Ferritin, Median (ferritin; Week 48): 850.00
Ferritin, Treatment Differences, LS Mean (KRX-0502) − LS Mean (control), (SE) (ferritin; Week 48): 270.56 (39.85)
Ferritin, LS Mean (ferritin; Week 52, ANCOVA): 901.95
Mean Ferritin (ferritin; Week 52, LOCF, Table C): 897 ng/mL
Ferritin, Change from Baseline, Mean (ferritin; Week 52): 302.11
Ferritin, Change from Baseline, Median (ferritin; Week 52): 224.00
Ferritin, Mean (ferritin; Week 52): 897.12
Ferritin, Median (ferritin; Week 52): 858.00
Ferritin, Treatment Differences, LS Mean (KRX-0502) − LS Mean (control), (SE) (ferritin; Week 52): 285.65 (42.76)
Mean Ferritin, % Change from Baseline (ferritin; Week 52, Table C): 50.8%
Average Daily EPO (ESA) intake based on the Cumulative EPO (ESA) intake to week 52 (Visit 4-21), Median ([1]; Safety Assessment Period, Full Analysis Population, Method 1 to handle overlapping doses): 724.24
Average Daily EPO (ESA) intake based on the Cumulative EPO (ESA) intake to week 52 (Visit 4-21), Mean ([1]; Safety Assessment Period, Full Analysis Population, Method 1 to handle overlapping doses, SD in the next cell): 1077.67
decrease in median ESA intake ([1]; administered over a period of 52 weeks, stated as embodiment): 27.1%
